Reference: patent US7371536B2, “Methods for transporting vitamin C” (priority 1999, dated 2008)

What was measured:
rat SVCT1 = target: T1, rat SVCT1 (Rattus norvegicus, UniProt Q9WTW7); experiment: Two-microelectrode voltage-clamp of Xenopus oocytes expressing rat SVCT1; format: cell-based
T1 construct: expressed in transfected cells; host or cells: Xenopus laevis oocytes injected with cRNA
Experimental: Rat SVCT1 and SVCT2 clones were obtained by isolating SVCT1 cDNA from rat kidney by expression cloning as described in Hediger et al., Methods Enzymol. 296:17-52 (1998). The SVCT2 cDNA was subsequently isolated by PCR-based homology screening of a rat brain cDNA library. […] Radiotracer and voltage-clamp experiments were performed (at 22° C.) in Xenopus oocytes two to seven days after injection with ˜25 ng of SVCT1 or SVCT2 cRNA synthesized in vitro. Radiotracer uptake was determined by incubating 6-10 oocytes for 30 or 60 min in standard 100 mM Na^+ or Na^+-free media with 10-600 μM L-[^14C]ascorbic acid.
Functional characterization of SVCT1 and SVCT2 in Xenopus oocytes—Oocytes were isolated from Xenopus laevis (under 2-aminoethylbenzoate anaesthesia), treated with collagenase A and stored at 18° C. in modified Barths' medium. Oocytes were injected with ≈25 ng of SVCT1 or SVCT2 cRNA synthesized in vitro, or water only (control), and incubated 2-7 days before radiotracer or voltage-clamp experiments were performed. Standard Na^+ uptake medium comprised 100 mM NaCl, 2 mM KCl, 1 mM CaCl2, 1 mM MgCl2, 10 mM HEPES (pH 7.5 with Tris base). For Na^+-free or low-Na^+ media, NaCl was replaced by equimolar choline chloride; likewise, Cl^− was replaced by gluconate for Cl^−-free medium. For pH-sensitivity experiments, Na^+ media were buffered at pH 5.5-8.0 using 0-5 mM MES, 0-5 mM HEPES and 0-5 mM Tris base. L-Ascorbic acid-containing solutions were freshly-prepared (without dithiothreitol) and used immediately.
Radiotracer uptake was determined by incubating 6-10 oocytes for 30 or 60 min in standard Na^+ or Na^+-free media (at 22° C.) with 10-600 μM L-[1-^14C]ascorbic acid (final specific activity 0.3 GBq/mmol). Oocytes were solubilized with 10% SDS and [^14C]-content was measured by liquid scintillation counting. A two-microelectrode voltage-clamp was used to measure currents in control oocytes and oocytes injected with rat SVCT1 or rat SVCT2 cRNA. Microelectrodes (resistance 0.5-5 MΩ) were filled with 3 M KCl. Oocytes were superfused at 22° C. in standard Na^+ medium and clamped at a holding potential (Vh) of −50 mV. For continuous current monitoring at Vh=−50 mV, the current was low-pass filtered at 20 Hz (sampling at 1 Hz). Additionally, step-changes in membrane potential (Vm) were applied (from +50 mV to −150 mV in 20-mV increments), each for a duration of 100 ms, before and after the addition of substrate; current was low-pass filtered at 500 Hz and digitized at 5 kHz. Test solutions were always washed out with substrate-free medium (100 mM choline chloride) at pH 7.5 for several minutes. Steady-state data (obtained by averaging the points over the final 16.7 ms at each Vm step when step-changes were applied) were fitted to equation (1) below, for which I is the evoked current (i.e., the difference in steady-state current measured in the presence and absence of substrate), Imax the derived current maximum, S the concentration of substrate S (Na^+ or L-ascorbic acid),
[formula] the substrate concentration at which current was half-maximal, and nH the Hill coefficient for S. (For radiotracer experiments, I was replaced with velocity V and Imax replaced with the derived maximal velocity, Vmax.)

rat SVCT2 = target: T2, rat SVCT2 (Rattus norvegicus, UniProt Q9WTW8); experiment: Two-microelectrode voltage-clamp of Xenopus oocytes expressing rat SVCT2; format: cell-based; details: oocytes expressing SVCT2, in the presence of Na^+
T2 construct: expressed in transfected cells; host or cells: Xenopus laevis oocytes injected with cRNA (vector pTLN2)
Experimental: Rat SVCT1 and SVCT2 clones were obtained by isolating SVCT1 cDNA from rat kidney by expression cloning as described in Hediger et al., Methods Enzymol. 296:17-52 (1998). The SVCT2 cDNA was subsequently isolated by PCR-based homology screening of a rat brain cDNA library. A 2.5-kb rabbit cDNA with 96% identity to residues 96-505 of the rat SVCT2 was obtained by RT-PCR. Radiotracer and voltage-clamp experiments were performed (at 22° C.) in Xenopus oocytes two to seven days after injection with ˜25 ng of SVCT1 or SVCT2 cRNA synthesized in vitro. Radiotracer uptake was determined by incubating 6-10 oocytes for 30 or 60 min in standard 100 mM Na^+ or Na^+-free media with 10-600 μM L-[^14C]ascorbic acid. […]
Radiotracer uptake was determined by incubating 6-10 oocytes for 30 or 60 min in standard Na^+ or Na^+-free media (at 22° C.) with 10-600 μM L-[1-^14C]ascorbic acid (final specific activity 0.3 GBq/mmol). Oocytes were solubilized with 10% SDS and [^14C]-content was measured by liquid scintillation counting. […] Steady-state data (obtained by averaging the points over the final 16.7 ms at each Vm step when step-changes were applied) were fitted to equation (1) below, for which I is the evoked current (i.e., the difference in steady-state current measured in the presence and absence of substrate), Imax the derived current maximum, S the concentration of substrate S (Na^+ or L-ascorbic acid), […]

T1 sequence (Q9WTW7 whole entry): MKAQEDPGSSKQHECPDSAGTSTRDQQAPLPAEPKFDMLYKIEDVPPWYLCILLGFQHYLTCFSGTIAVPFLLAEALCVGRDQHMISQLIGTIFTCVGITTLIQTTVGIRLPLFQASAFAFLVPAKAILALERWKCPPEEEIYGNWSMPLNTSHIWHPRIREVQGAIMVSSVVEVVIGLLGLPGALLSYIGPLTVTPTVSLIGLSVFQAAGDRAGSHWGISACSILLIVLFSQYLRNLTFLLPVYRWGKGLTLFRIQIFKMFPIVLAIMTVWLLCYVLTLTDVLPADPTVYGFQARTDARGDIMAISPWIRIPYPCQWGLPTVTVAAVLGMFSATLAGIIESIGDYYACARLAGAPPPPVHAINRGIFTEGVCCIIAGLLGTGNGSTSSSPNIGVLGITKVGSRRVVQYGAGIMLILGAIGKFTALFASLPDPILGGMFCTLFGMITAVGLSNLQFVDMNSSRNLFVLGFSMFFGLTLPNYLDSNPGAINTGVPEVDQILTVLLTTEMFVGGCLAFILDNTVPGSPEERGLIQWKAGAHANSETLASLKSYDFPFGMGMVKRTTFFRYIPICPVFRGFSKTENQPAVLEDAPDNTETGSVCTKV
T2 sequence (Q9WTW8 whole entry): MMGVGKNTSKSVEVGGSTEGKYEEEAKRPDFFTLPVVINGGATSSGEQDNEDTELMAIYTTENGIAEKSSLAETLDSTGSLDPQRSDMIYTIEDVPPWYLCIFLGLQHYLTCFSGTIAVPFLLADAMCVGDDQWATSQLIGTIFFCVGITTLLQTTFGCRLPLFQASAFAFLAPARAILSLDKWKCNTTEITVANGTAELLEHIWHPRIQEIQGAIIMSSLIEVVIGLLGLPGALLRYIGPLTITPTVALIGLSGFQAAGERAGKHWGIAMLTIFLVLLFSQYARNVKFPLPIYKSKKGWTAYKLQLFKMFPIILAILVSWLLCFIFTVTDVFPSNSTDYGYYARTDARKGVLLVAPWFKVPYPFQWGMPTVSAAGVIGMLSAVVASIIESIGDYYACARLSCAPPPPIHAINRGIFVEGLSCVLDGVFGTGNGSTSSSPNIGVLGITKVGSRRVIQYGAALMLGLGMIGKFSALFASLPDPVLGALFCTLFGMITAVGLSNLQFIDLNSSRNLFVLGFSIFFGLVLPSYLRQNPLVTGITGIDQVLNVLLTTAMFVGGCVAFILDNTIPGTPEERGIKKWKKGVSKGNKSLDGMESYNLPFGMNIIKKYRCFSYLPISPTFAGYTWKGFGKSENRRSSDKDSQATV

In the case of `O=C1O[C@H]([C@@H](O)CO)C(O)=C1O` [L-ascorbic acid], the “Hill coefficient (nH)” value (rat SVCT1; evoked currents, −50 mV) is reported as “≈ 1”, the “reduction of evoked currents at pH 5.5 versus pH 7.5” value (rat SVCT1; extracellular pH 5.5 compared with pH 7.5) is reported as 50% and the “L-ascorbic acid-evoked reversible inward currents” value (rat SVCT1; oocytes expressing SVCT1, in the presence of Na^+) is reported as “up to −100 nA”. The “K0.5 (L-ascorbic acid concentration at which currents were half-maximal)” value (rat SVCT1; −50 mV, 100 mM Na^+) was 30 µM and the “L-ascorbic acid-evoked reversible inward currents” value (rat SVCT2) was “up to −10 nA”.
